From patent publication US6780995B2, “Activated iododerivatives for the treatment of cancer and aids” (Isotechnika Inc., priority 1997, dated 2004)
Like-named read-outs stand apart in the source and are kept apart here.

Legend:
[1] = system: A549 cells; test: IC50 assay, inhibition of cell proliferation and growth, A549; type: cell-based, human; details: A549 bronchogenic cell line, neutral red or crystal violet, read-out: IC50 Concentrations, A 549
Method: (§1) Cell culture: The human cell lines were propagated under sterile conditions in RPMI 1640 (CellGrow) with 10% fetal bovine serum (Hyclone), 2 mM L-glutamine, and sodium bicarbonate (complete medium) and incubated at 37° C. in HEPA-filtered Sterilcult CO2 tissue culture incubators (Forma) with 5% CO^2 and 95% humidity (Table 1). The murine leukemia cell lines were propagated in Dulbecco's MEM media with 10% equine serum (Hyclone), 2 mM L-glutamine, and sodium bicarbonate (complete medium) and incubated as described. The cells were subcultured twice weekly and used in experiments. The culture was screened for mycoplasma contamination using GeneProbe™ (Fisher) and positive cultures were cured of contaminants over three passages using constant treatment with BM-Cyclin™ antibiotic combination (Boehringer Mannheim). Only cultures confirmed as mycoplasma free were used in testing compounds for anticellular activity.
(§2) The test compounds were stored at 4° C. under light protected conditions. The test compounds were weighed and dissolved in DMSO. The dissolved compounds were then serially diluted in warm medium (RPMI 1640 or Dulbecco's MEM) under constant mixing to minimize precipitation. The positive control drug doxorubicin was diluted in water followed by dilution in media to achieve a final concentration of 200 nM.
(§3) For all experiments, the cells were harvested and centrifuged to remove the media, and suspended in fresh completed medium. Samples were taken to determine cell density. The cell count was determined with a Coulter Model Z1 cell counter and viability was measured with propidium iodide staining followed by analysis on a Coulter EPPICS Elite Flow cytometer. The cell samples sere adjusted with complete medium to a density of 5×10^4/mL for adherent cell lines and 1×10^5/mL for suspension lines. Tissue culture cluster plates (96 well, cat. No. 3595 Costar for adherent human lines and cat No. 25850 Corning for murine leukemias) were seeded with 100 μL cells and incubated as described. Replicate groups of plates were set up for each line to accommodate the exposure options for single agents and combinations. For each dilution 8 wells (100 μL samples of cells) were treated with 100 μL of dosing solution one day after plating. Each cluster plate contained a cell control (8 wells, mock-treated with complete medium), a medium control (3 wells with medium used to subtract out signal generated by media conditions), and an air blank (1 well, for calibrating the plate reader).
(§4) Anticellular effects of the compounds for the adherent cell lines were assessed with neutral red dye. On the day of analysis, the media was removed from sample cell monolayers and replaced with 0.1 mL of neutral red solution (0.5% neutral red, HBSS:RPMI 1640 (1:1), 0.05 M HEPES, pH 7.2). After incubation of the samples at 37° C. for 1 hour the excess dye was removed with blotting and the monolayers were washed twice with 0.85% NaCl solution (0.1 mL per wash). The cell associated dye was extracted by adding 0.2 mL of a 0.1 M NaH2PO4:ethanol (1:1) solution/well followed by incubation for 1 hour at 35° C. The absorbency of neutral red in each monolayer was measured at 550 nm (620 nm reference beam) on a Denley Anthos 2001 microplate reader. The data were transferred via the ARCOM software capture program in Lotus 1-2-3 for processing.
(§5) In assays where technical difficulties due to crystalization of the neutral red occurred the crystal violet staining procedure was employed to measure the amount of cells were left on the plate. Crystal violet staining solution [0.5% crystal violet (w/v), 50% methanol (v/v), 45% saline (v/v), and 5% formalin (v/v)] were prepared on the day of staining. After the media was removed from the sample wells, two drops of crystal violet stain were added to each well and the samples were incubated at ambient temperature for 10 minutes. […]

[2] = system: COLO 205 cells; test: IC50 assay, inhibition of cell proliferation and growth, COLO 205; type: cell-based, human; details: COLO 205 colon adenocarcinoma cell line, neutral red or crystal violet, read-out: IC50 Concentrations, COLO 205
Method: as §1, §2, §3, §4, §5

[3] = system: SK-MEL-5 cells; test: IC50 assay, inhibition of cell proliferation and growth, SK-MEL-5; type: cell-based, human; details: SK-MEL-5 melanoma cell line, neutral red or crystal violet, read-out: IC50 Concentrations, SK MEL-5
Method: as §1, §2, §3, §4, §5

[4] = system: M14 cells; test: IC50 assay, inhibition of cell proliferation and growth, M14; type: cell-based, human; details: M14 melanoma cell line, neutral red or crystal violet, read-out: IC50 Concentrations, M14
Method: as §1, §2, §3, §4, §5

[5] = system: B16 cells; test: IC50 assay, inhibition of cell proliferation and growth, B16; type: cell-based; details: B16 murine melanoma cell line, neutral red or crystal violet, read-out: IC50 Concentrations, B16
Method: as §1, §2, §3, §4, §5

[6] = system: L1210 cells; test: IC50 assay (XTT), inhibition of cell proliferation and growth, L1210; type: cell-based; details: L1210 murine leukemia cell line, XTT dye conversion, read-out: IC50 Concentrations, L1210
Method: as §1, §2, §3
(§6) Anticellular effects of the murine leukemia cell lines were assessed with the XTT dye conversion assay which is more suited to suspension cultures. On the day of analysis XTT[2,3-bis(2-methoxy-4-nitro-5-sulfophenyl)-5-[(phenylamino)carbenyl]-2H-tetrazolium hydroxide, inner salt, sodium salt (Sigma)] was weighed out and dissolved at 1 mg/mL in media. PMS (phenazine methosulfate) was prepared at 5 mM in PBS (phosphate buffered saline) and stored as a stock solution 4° C. The PMS was mixed with dissolved XTT to a final concentration of 0.025 mM. Sample wells were treated with 50 μL of the XTT solution and the plates were incubated for four hours at 37° C. to allow for conversion into the liquid soluble formazan product. After the incubation period the reaction was stopped by adding 10 μL of 10% SDS solution per well and the wells contents of each plate were mixed by agitation. The absorbancy of formazan in each monolayer was measured at 450 nm (620 nm reference beam) on a Denley Anthos 2001 microplate reader. The data were transferred via the ARCOM software capture program into Lotus 1-2-3 for processing.
(§7) Using the procedures described above, concentrations of the Example compounds necessary to inhibit cell proliferation and growth by 50% (1C50 values) were determined in the test cell lines.

[7] = system: SK-OV-3 cells; test: IC50 assay, inhibition of cell proliferation and growth, SK-OV-3; type: cell-based, human; details: SK-OV-3 ovarian adenocarcinoma cell line, neutral red or crystal violet, read-out: IC50 Concentrations, SK-OV-3
Method: as §1, §2, §3, §4, §5

[8] = system: P388 cells; test: IC50 assay (XTT), inhibition of cell proliferation and growth, P388; type: cell-based; details: P388 murine leukemia cell line, XTT dye conversion, read-out: IC50 Concentrations, P388
Method: as §1, §2, §3, §6, §7

[9] = system: MCF7 cells; test: IC50 assay, inhibition of cell proliferation and growth, MCF7; type: cell-based, human; details: MCF7 breast adenocarcinoma cell line, neutral red or crystal violet, read-out: IC50 Concentrations, MCF 7
Method: as §1, §2, §3, §4, §5

[10] = system: RPMI 8226 cells; test: IC50 assay, inhibition of cell proliferation and growth, RPMI 8226; type: cell-based; details: Homo sapiens; RPMI 8226 myeloma cell line; read-out: IC50 Concentrations, RPM 18226
Method: as §1, §2, §3, §7

Row | Compound | IC50 ([1]; Homo sapiens) | IC50 ([2]; Homo sapiens) | melting point | IC50 ([3]; Homo sapiens) | IC50 ([4]; Homo sapiens) | IC50 ([5]; Mus musculus) | IC50 ([6]; Mus musculus) | IC50 ([7]; Homo sapiens) | IC50 ([8]; Mus musculus) | IC50 ([9]; Homo sapiens) | IC50 [10] | IC50 [1] | IC50 [2] | IC50 [3] | IC50 [4] | IC50 [5] | IC50 [6] | IC50 [7] | IC50 [8] | IC50 [9]
1 | CCOC(=O)c1sc(NC(=O)c2cc([N+](=O)[O-])ccc2I)nc1C [Ref. No. 16] | 30.1 µM | 31.2 µM | 211 to 212 °C | 41.7 µM | 37.3 µM | 7.93 µM | 41.1 µM | 41.2 µM | 11.2 µM | 34.3 µM | 10.6 µM |  |  |  |  |  |  |  |  | 
2 | O=C(Nc1nnc(C(F)(F)F)s1)c1cc([N+](=O)[O-])ccc1I [Ref. No. 18] | 15.7 µM | 41.3 µM | 219 to 221 °C | 28.8 µM | 27.3 µM | 20.8 µM | 28.4 µM | 73 µM | 12.8 µM | 24 µM | 16.7 µM |  |  |  |  |  |  |  |  | 
3 | Cc1ccc(-c2csc(NC(=O)c3cc([N+](=O)[O-])ccc3I)n2)cc1 [Ref. No. 19, 2(2′-Iodo-5′-Nitro-Benzamido)-4-tolyl-Thiazole] | 163 µM | 18.2 µM | 244 to 248 °C | 51.3 µM | 14.4 µM | 5.15 µM | 13.5 µM | 33.2 µM | 2.43 µM | 35.5 µM | 11.8 µM |  |  |  |  |  |  |  |  | 
4 | Cc1csc(NC(=O)c2cc([N+](=O)[O-])ccc2I)n1 [Ref. No. 21, 2-(2′-Iodo-5′-Nitro-Benzamido)-4-Methyl-Thiazole] | 43.7 µM | 5.59 µM |  | 15 µM | 13.2 µM | 5.13 µM | 12.8 µM | 15.7 µM | 3.44 µM | 12.5 µM | 3.33 µM |  |  |  |  |  |  |  |  | 
5 | Cc1cnc(NC(=O)c2cc([N+](=O)[O-])ccc2I)s1 [Ref. No. 22, 2(2′-Iodo-5′-Nitro-Benzamido)-5-Methyl-Thiazole] | 45.2 µM | 13.5 µM |  | 15.3 µM | 14.5 µM | 6.2 µM | 12.8 µM | 16.1 µM | 3.64 µM | 14.8 µM | 12.7 µM |  |  |  |  |  |  |  |  | 
6 | O=C(NC1=NCCS1)c1cc([N+](=O)[O-])ccc1I [Ref. No. 23, 2-(2′-Iodo-5′-Nitro-Benzamido)-2-Thiazoline] | > 500 µM | 81.9 µM | 176 to 179 °C | 125 µM | 150 µM | 129 µM | > 500 µM | > 500 µM | 353 µM | 162 µM | 237 µM |  |  |  |  |  |  |  |  | 
7 | N-(4′-Pyridyl)-2-Iodo-5-Nitrophenyl Hydrazide [Ref. No. 10] |  |  |  |  |  |  |  |  |  |  |  | > 500 µM | 441 µM | > 500 µM | > 500 µM | 301 µM | > 18.5 µM | 361 µM | > 18.5 µM | > 500 µM
